Assay [1] deals with T1, chymotrypsin-like activity of rabbit muscle 20S proteasomes (Oryctolagus cuniculus, UniProt G1T4Q9).
T1 sequence (G1T4Q9 1-263): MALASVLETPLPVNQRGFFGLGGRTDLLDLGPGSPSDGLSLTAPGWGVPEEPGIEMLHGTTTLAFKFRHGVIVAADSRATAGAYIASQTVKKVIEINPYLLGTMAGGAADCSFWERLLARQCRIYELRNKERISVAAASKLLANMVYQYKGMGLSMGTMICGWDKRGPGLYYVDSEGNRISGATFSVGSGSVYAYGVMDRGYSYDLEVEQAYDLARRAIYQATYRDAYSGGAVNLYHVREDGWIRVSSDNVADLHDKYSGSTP
Description: Inhibition of chymotrypsin-like activity of purified rabbit muscle 20S proteasome (suc-LLVY-AMC). It is filed as biochemical. How it is done:
This peptide substrate is specific for the chymotrypsin-like enzyme activity of the proteasome.
Omuralide was prepared as a 10 mM stock in DMSO and stored in 5 μL aliquots at −80° C. […] The assay measures the hydrolysis of Suc-LLVY-AMC into Suc-LLVY and AMC. The released coumarin (AMC) was measured fluorometrically by using λex=390 nm and λem=460 nm. The assays were performed in a microtiter plate (Corning 3904), and followed kinetically with measurements every five minutes. The instrument used was a Thermo Lab Systems Fluoroskan, with the incubation chamber set to 37° C. The assays were performed according to the manufacturer's protocol, with the following changes. The proteasome was activated as described with SDS, and held on ice prior to the assay. […] Ten microliters of each dose were added in triplicate to the assay plate, and 190 μL of the activated proteasome was added and mixed. The samples were pre-incubated in the Fluoroskan for 5 minutes at 37° C. Substrate was added and the kinetics of AMC were followed for one hour.

The target in assay [2] is PGPH (caspase-like) activity of rabbit muscle 20S proteasomes (Oryctolagus cuniculus, UniProt A0A5F9DQW2). Description: Inhibition of caspase-like (PGPH) activity of 20S proteasome (Z-LLE-AMC). The format is biochemical. The following applies: Table 3; mean EC50; purified rabbit 20S proteasomes. The procedure:
A commercially available fluorogenic substrate specific for the PGPH activity was used instead of the chymotrypsin substrate supplied in the proteasome assay kit described above.
The substrate Z-LLE-AMC was prepared as a 20 mM stock solution in DMSO, stored at −20° C. The source of the proteasomes was the commercially available kit from Calbiochem (Cat. #539158). As with the chymotrypsin substrate, the proteasome can cleave Z-LLE-AMC into Z-LLE and free AMC. The activity can then be determined by measuring the fluorescence of the released AMC (λex=390 nm and λem=460 nm). The proteasomes were activated with SDS and held on ice as per manufacturer's recommendation. […] The series was diluted 20-fold with assay buffer and preincubated with the proteasomes as described for the chymotrypsin-like activity. After addition of substrate, the samples were incubated at 37° C., and release of the fluorescent AMC was monitored in a fluorimeter. All data were collected and plotted as the mean of triplicate points. […] As before, the model chosen was a sigmoidal dose-response, with a variable slope.

Assay [3] has as its system NF-κB-mediated luciferase activity in HEK293 NF-κB/Luc cells. Description: NF-κB-mediated luciferase reporter gene assay. It is filed as cell-based, human. Particulars: for EC50: Homo sapiens, HEK293, representative experiment, Example 43 (FIG. 44, 45), read-out: calculated EC50 to inhibit NF-κB inducible luciferase activity; for luciferase activity upon TNF-α stimulation: pretreatment of NF-κB/Luc 293 cells. How it is done: The HEK293 NF-κB/luciferase reporter cell line is a derivative of the human embryonic kidney cell line (ATCC; CRL- 1573) and carries a luciferase reporter gene under the regulation of 5×NF-κB binding sites. […] When performing the luciferase assay, the DMEM basal medium was replaced with phenol-red free DMEM basal medium and the G418 was omitted.
For NF-κB-mediated luciferase assays, HEK293 NF-κB/luciferase cells were seeded at 1.5×10^4 cells/well in 90 μl phenol-red free DMEM complete medium into Corning 3917 white opaque-bottom tissue culture plates. […] This dilution series was further diluted 40× in appropriate culture medium and ten μl aliquots were added to the test wells in triplicate resulting in final test concentrations ranging from 1 μM to 320 pM. […] For Formula II-19, a 127 μM starting dilution was made in 100% DMSO and the final test concentrations ranging from 317 nM to 0.1 nM. […] After 1 hr pretreatment, 10 μl of a 50 ng/ml TNF-α solution, prepared in the phenol-red free DMEM medium was added, and the plates were incubated for an additional 6 hr.
NF-κB inducible luciferase activity was measured at 6 hours.
The HEK293 NF-κB/luciferase reporter cell line is a derivative of the human embryonic kidney cell line (ATCC; CRL-1573) and carries a luciferase reporter gene under the regulation of 5×NF-κB binding sites. […] When performing the luciferase assay, the DMEM basal medium was replaced with phenol-red free DMEM basal medium and the G418 was omitted.
For NF-κB-mediated luciferase assays, HEK293 NF-κB/luciferase cells were seeded at 1.5×10^4 cells/well in 90 μl phenol-red free DMEM complete medium into Corning 3917 white opaque-bottom tissue culture plates. For Formula II-2, Formula II-4 and Formula II-5A, a 400 μM starting dilution was made in 100% DMSO and this dilution was used to generate a 8-point half log dilution series. This dilution series was further diluted 40× in appropriate culture medium and ten μl aliquots were added to the test wells in triplicate resulting in final test concentrations ranging from 1 μM to 320 pM. […] After 1 hr pretreatment, 10 μl of a 50 ng/ml TNF-α solution, prepared in the phenol-red free DMEM medium was added, and the plates were incubated for an additional 6 hr.
The relative luciferase units (RLU) were measured by using a Fusion microplate fluorometer (Packard Bioscience).

The subject of the next assay is HT-29 cells. Kind of assay: Cell growth inhibition (resazurin, 48 hours), HT-29. It is filed as cell-based. Particulars: Homo sapiens, HT-29. (In general: The colour change of resazurin is a common sign of viable cells or microbes.)
Another assay relates to MDA-MB-231 cells. Description: Cell growth inhibition (resazurin, 48 hours), MDA-MB-231. The format is cell-based. The following applies: Homo sapiens, MDA-MB-231.
Another assay concerns NCI-H292 cells. Description: Cell growth inhibition (resazurin, 48 hours), NCI-H292. Particulars: Homo sapiens, NCI-H292. It is filed as cell-based, human.
The next assay deals with PC-3 cells. Description: Cell growth inhibition (resazurin, 48 hours), PC-3. The format is cell-based, human. The following applies: Homo sapiens, PC-3.
For a further assay, the system named is RPMI 8226 cells. Description: Cell growth inhibition (resazurin, 48 hours), RPMI 8226.
Assay [4] addresses T2, trypsin-like activity of purified rabbit 20S proteasomes (Oryctolagus cuniculus, UniProt G1SWK8).
T2 sequence (G1SWK8 1-271): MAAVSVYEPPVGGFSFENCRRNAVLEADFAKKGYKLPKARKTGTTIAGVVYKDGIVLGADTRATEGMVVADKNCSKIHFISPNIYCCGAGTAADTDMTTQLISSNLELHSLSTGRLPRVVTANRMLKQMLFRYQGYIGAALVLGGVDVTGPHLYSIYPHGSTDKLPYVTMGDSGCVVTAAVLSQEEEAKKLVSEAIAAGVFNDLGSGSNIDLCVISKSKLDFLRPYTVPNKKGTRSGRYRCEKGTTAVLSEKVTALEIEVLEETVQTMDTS
Particulars: under the conditions tested.

The subject of assay [5] is LeTx-induced cytotoxicity of RAW264.7 cells. Kind of assay: cells. The following applies: Mus musculus, RAW264.7, read-out: EC50 (nM), inhibition of RAW 264.7 cell cytotoxicity mediated by anthrax lethal toxin.
For assay [6], the target named is T2, trypsin-like activity of purified rabbit 20S proteasomes. Description: biochemical.
A further assay deals with U266 cells. Description: Cell growth inhibition (resazurin, 48 hours), U266.
For a further assay, the system named is B16-F10 cells. Description: Cell growth inhibition (resazurin, 48 hours), B16-F10. The format is cell-based, mouse. The following applies: Mus musculus, B16-F10, Table 13; B16-F10.
For a further assay, the system named is OVCAR-3 cells. Description: Cell growth inhibition (resazurin, 48 hours), OVCAR-3. The format is cell-based, human. The following applies: Homo sapiens, OVCAR-3, Table 13; OVCAR-3.
In a further assay the test system is MES-SA cells. Description: Cell growth inhibition (resazurin, 48 hours), MES-SA. Particulars: Homo sapiens, MES-SA, read-out: EC50 (nM) MES-SA, Table 16.
The next assay concerns MES-SA/Dx5 cells. Description: cells. Particulars: Homo sapiens, MES-SA/Dx5, read-out: EC50 (nM) MES-SA/Dx5, Table 16.
The next assay has as its system HL-60 cells. Kind of assay: Cell growth inhibition (resazurin, 48 hours), HL-60. The following applies: Homo sapiens, HL-60, read-out: EC50 (nM) HL-60, Table 17. An excerpt:
(§1) The DNA binding agent Mitoxantrone was included as a control, as HL-60/MX2 cells are reported to be resistant to this chemotherapeutic agent (Harker W. G. et al. 1989).

A further assay relates to HL-60/MX2 cells. Description: cells. The following applies: Homo sapiens, HL60/MX2, read-out: EC50 (nM) HL-60/MX2, Table 17.
Excerpt: as §1

[7] abbreviates: Table 3, mean EC50, purified rabbit 20S proteasomes, read-out: EC50 Values, Chymotrypsin-like.
[8] abbreviates: representative experiment, Example 44 (FIG. 46, 47), read-out: EC50, chymotrypsin-like activity of the proteasome.
[9] abbreviates: Homo sapiens, RPMI-8226, Table 13, RPMI 8226.
Setting [10] is: Homo sapiens, RPMI-8226, read-out: RPMI 8226 EC50 (nM), Table 15, mean EC50.
The mark [11] stands for this setting: Homo sapiens, U-266, Table 13, U266.
The mark [12] stands for this setting: Homo sapiens, U-266, read-out: U266 EC50 (nM), Table 15, mean EC50.

Like-named read-outs stand apart in the source and are kept apart here.

Sequence of PGPH (caspase-like) activity of rabbit muscle 20S proteasomes (A0A5F9DQW2 1-212): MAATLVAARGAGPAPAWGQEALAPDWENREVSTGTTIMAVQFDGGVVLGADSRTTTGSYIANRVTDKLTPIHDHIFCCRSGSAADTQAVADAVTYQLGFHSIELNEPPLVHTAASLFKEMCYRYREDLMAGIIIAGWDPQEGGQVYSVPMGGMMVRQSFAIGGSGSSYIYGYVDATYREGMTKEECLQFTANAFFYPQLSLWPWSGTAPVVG

With `C[C@@]12OC(=O)[C@]1([C@@H](O)[C@H]1CCC[C@H]3O[C@@H]13)NC(=O)[C@@H]2CCCl` [Formula II-5A], the EC50 in assay [1] (setting [7]) was 6.5 nM; in assay [1] (setting [8]) it was 6 nM; in [2] it was 487 nM; in [3] it was 30 nM; in the assay on HT-29 cells (Table 13, read-out: EC50), 85 nM; with MDA-MB-231 cells (Table 13, read-out: EC50), 66 nM. The EC50 with NCI-H292 cells (Table 13, read-out: EC50) is 90 nM; in the assay on PC-3 cells (Table 13, read-out: EC50) it was 97 nM; in the assay with RPMI 8226 cells (setting [9]), 36 nM; with RPMI 8226 cells (setting [10]) it was 33 nM; with RPMI 8226 cells (Table 13, RPMI 8226), 29 nM; in assay [5] it was 3 nM. In addition, the EC50 in assay [6] was 89 nM; with U266 cells (setting [11]), 10 nM; with U266 cells (setting [12]), 10 nM; in the assay with U266 cells (Table 13, U266), 9 nM. Besides, in assay [3], the “luciferase activity upon TNF-α stimulation” value is recorded as “dose-dependent decrease”. The “inhibit the trypsin-like activity of the 20S proteasome” value (“inhibit the trypsin-like activity” for short) in assay [4] is on record as “able to inhibit”.

Regarding `C[C@@]12OC(=O)[C@]1([C@@H](O)[C@H]1CCC[C@@H]3O[C@H]13)NC(=O)[C@@H]2CCCl` [Formula II-5B], the EC50 was 87 nM in assay [1] (setting [7]); 88 nM in [1] (setting [8]); 3300 nM in assay [2]; 261 nM in [3]; 1070 nM in the assay with HT-29 cells (Table 13, read-out: EC50); 1040 nM in the assay with MDA-MB-231 cells (Table 13, read-out: EC50). Besides, the EC50 with NCI-H292 cells (Table 13, read-out: EC50) is more than 20000 nM; in the assay with PC-3 cells (Table 13, read-out: EC50), 1330 nM; in the assay with RPMI 8226 cells (setting [9]), 326 nM; in the assay with RPMI 8226 cells (setting [10]), 327 nM; in the assay with RPMI 8226 cells (Table 13, RPMI 8226), 328 nM; in assay [5], 45 nM. The EC50 in [6] is 739 nM; with U266 cells (setting [11]), 118 nM; in the assay on U266 cells (setting [12]) it was 115 nM; with U266 cells (Table 13, U266), 111 nM. The “luciferase activity upon TNF-α stimulation” value in [3] is recorded as “dose-dependent decrease”. In addition, the “inhibit the trypsin-like activity” value in assay [4] was “able to inhibit”.

For `CC[C@H]1C(=O)N[C@@]2([C@@H](O)C3CCCCC3)C(=O)O[C@@]12C` [Formula II-3], the EC50 in [1] (setting [7]) was 927 nM; in assay [1] (setting [8]) it was 890 nM; in [2], more than 20000 nM; in the assay with B16-F10 cells it was more than 20000 nM; with HT-29 cells, more than 20000 nM; in the assay on MDA-MB-231 cells, more than 20000 nM. Also, the EC50 in the assay on NCI-H292 cells (NCI-H292, Table 13) was more than 20000 nM; in the assay on OVCAR-3 cells, more than 20000 nM; in the assay with PC-3 cells it was more than 20000 nM; with RPMI 8226 cells (setting [9]), more than 20000 nM; with MES-SA cells, more than 20000 nM; with MES-SA/Dx5 cells it was more than 20000 nM. Also, the EC50 with HL-60 cells is more than 20000 nM; in the assay on HL-60/MX2 cells, more than 20000 nM; in assay [5], more than 330 nM; in assay [6] it was 6600 nM; in the assay with U266 cells (setting [11]), more than 20000 nM. In addition, the “inhibit the trypsin-like activity” value in assay [4] is reported as “able to inhibit”.

As to `CC[C@H]1C(=O)N[C@@]2([C@@H](O)[C@@H]3C=CCCC3)C(=O)O[C@@]12C` [Formula II-17], in [3], the “luciferase activity upon TNF-α stimulation” value was “dose-dependent decrease”. In addition, the EC50 was more than 20000 nM with HT-29 cells; 5900 ± 601 nM in the assay with MDA-MB-231 cells; more than 20000 nM with NCI-H292 cells (NCI-H292, Table 13); more than 20000 nM in the assay with OVCAR-3 cells; more than 20000 nM in the assay with PC-3 cells; 9230 nM in the assay with MES-SA cells. The EC50 with MES-SA/Dx5 cells is 9450 nM; in the assay with HL-60 cells it was more than 20000 nM; in the assay on HL-60/MX2 cells it was more than 20000 nM; in [5], 42 nM; in assay [6] it was 588 nM. Besides, the “inhibit the trypsin-like activity” value in [4] is reported as “able to inhibit”.
